Tested on: lashes and adjacent hairs of patients having glaucoma
Assay: Clinical observation of lashes and adjacent hairs in glaucoma patients treated in one eye
Type: in vivo, human
Source text: In the course of treating patients having glaucoma, treatment may only be appropriate in one eye. […] The lash appearance on the lids of the treated eyes would have appeared quite attractive if it represented a bilateral phenomenon. As a result of its asymmetric nature, the long lashes on one side could be construed as disturbing from a cosmetic standpoint. A systemic examination was preformed as a result of the asymmetric phenomenon. It soon became apparent that this altered appearance was not an isolated finding.
The changes in the lashes were apparent on gross inspection in several patients once attention was focused on the issue. In those with light colored hair and lashes, the differences were only seen easily with the aid of the high magnification and lighting capabilities of the slit lamp biomicroscope. In the course of glaucoma follow-up examination, attention is generally immediately focused on the eye itself. As a result of the high power magnification needed only one eye is seen at a time and the eye is seen at a high enough power that the lashes are not in focus. At these higher powers, any lash asymmetry between the two eyes is not likely to be noticed except by careful systematic comparison of the lashes and adjacent hairs of the eyelids of the two eyes. […]

## CCNC(=O)CCC/C=C\C[C@@H]1[C@@H](/C=C/[C@@H](O)CCc2ccccc2)[C@H](O)C[C@@H]1O [bimatoprost]
A patient treated in one eye
  lash appearance, treated eye versus non-treated eye: longer, thicker, and fuller in the treated eye than in the non-treated eye
All patients taking the drug on a unilateral basis for longer than 6 months
  differences in lashes and adjacent hairs of the treated side: Definite differences could be identified to varying degrees

From patent US20090233921A1, “THERAPEUTIC CYCLOPENTANE DERIVATIVES” (ALLERGAN, INC., priority 2008, published 2009)
